We go through 8 compounds from ChEMBL document CHEMBL1201862, “PubChem BioAssay data set” (2004).

Some test systems named below: SN12C; SW-620; LOX IMVI; MDA-N; HT-29; BT-549; NCI-H23; U-251; A549; NCI-H460; SK-MEL-28; HCT-116; MDA-MB-231; SF-539; SK-OV-3; HCC 2998; IGROV-1; OVCAR-8; Malme-3M; MCF7.
What all share (test): NCI tumour cell line growth inhibition, 48 h

Structures are written as SMILES. “And” between values parts separate entries of the source, which are not always exact repeats. Identical values can stand only once.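 Where inhibition never reached the appropriate level, the endpoint shown equals the highest concentration tested. Otherwise, values were interpolated linearly from a five-concentration, 48-hour dose response in 96-well plates. GI50: concentration for 50% inhibition of growth.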 The source made the active and inactive calls. Rule as the data show it: active = GI50 up to about 1.1 µM and inactive = higher. Bounds are passed on as bounds.

Regarding `CCOC(=O)c1c(-c2ccc(O)c(OC)c2)c(C#N)c(=S)n(C2OC(COC(C)=O)C(OC(C)=O)C(OC(C)=O)C2OC(C)=O)c1-c1ccccc1` (stereo unspecified), the GI50 is > 100 µM (inactive) and 88.9 µM (inactive) in the test on SN12C; > 100 µM (inactive) with SW-620; 35.4 µM (inactive) and 48 µM (inactive) in the test with LOX IMVI; 61.7 µM (inactive) and 39.4 µM (inactive) in the test on MDA-N; 59.7 µM (inactive) and 32.1 µM (inactive) with HT-29; 57.7 µM (inactive) and 32.6 µM (inactive) with BT-549. The GI50 in the test on NCI-H23 is 43.7 µM (inactive) and 61.1 µM (inactive); in the test with U-251 it was > 100 µM (inactive); in the test on A549 it was > 100 µM (inactive) and 94.4 µM (inactive); with NCI-H460 it was > 100 µM (inactive) and 70.1 µM (inactive); in the test on SK-MEL-28 it was 58.2 µM (inactive); with HCT-116, 47.9 µM (inactive) and 63.2 µM (inactive).

`NCCN1C(=O)CN=C(c2ccc(Cl)cc2)c2cc(Cl)ccc21`: the GI50 is 14.3 µM (inactive) in the test on MDA-MB-231; 17.4 µM (inactive) with SF-539; 22.5 µM (inactive) with SN12C; 15.7 µM (inactive) in the test on SW-620; 22.4 µM (inactive) in the test on SK-OV-3; 16.2 µM (inactive) with LOX IMVI. Also, the GI50 in the test on MDA-N was 16.7 µM (inactive); in the test on HT-29, 16.8 µM (inactive); in the test with HCC 2998 it was 16.5 µM (inactive); in the test on BT-549, 16 µM (inactive); in the test with IGROV-1, 13.3 µM (inactive); in the test with OVCAR-8, 16.7 µM (inactive). The GI50 in the test with NCI-H23 is 18.1 µM (inactive); with U-251, 16.8 µM (inactive); in the test with Malme-3M it was 14.2 µM (inactive); in the test on A549 it was 17.1 µM (inactive); with NCI-H460 it was 18 µM (inactive); in the test on SK-MEL-28, > 100 µM (inactive). Moreover, the GI50 in the test on HCT-116 is 16.2 µM (inactive).

Take `CCN(CC)c1ccc2cc(-c3nnc(-c4ccccc4O)o3)c(=O)oc2c1`: the GI50 in the test with SF-539 is 8.18 µM (inactive); in the test on SW-620, 5.75 µM (inactive); with SK-OV-3 it was 17.1 µM (inactive); in the test with LOX IMVI, 6.73 µM (inactive); in the test with MDA-N, 12.5 µM (inactive); in the test with HT-29 it was 11.7 µM (inactive). Also, the GI50 is 13.6 µM (inactive) in the test with HCC 2998; 5.75 µM (inactive) in the test on BT-549; 3.12 µM (inactive) in the test on IGROV-1; 2.4 µM (inactive) in the test on OVCAR-8; 8.93 µM (inactive) in the test with NCI-H23; 10.3 µM (inactive) in the test on MCF7. Besides, the GI50 was 7.71 µM (inactive) in the test on U-251; 14.9 µM (inactive) in the test on Malme-3M; 13.6 µM (inactive) in the test with A549; 7.08 µM (inactive) in the test on NCI-H460; 11.7 µM (inactive) in the test on SK-MEL-28; 5.97 µM (inactive) with HCT-116.

With `NC(=S)Nc1nc(=S)[nH]c2[nH]ccc12`, the GI50 with MDA-MB-231 is > 100 µM (inactive); in the test with SF-539 it was > 100 µM (inactive); in the test on SN12C, > 100 µM (inactive); in the test with SW-620 it was > 100 µM (inactive); with SK-OV-3 it was > 100 µM (inactive); in the test with LOX IMVI it was 27.7 µM (inactive). For the same compound, the GI50 is 98.2 µM (inactive) with MDA-N; 99.5 µM (inactive) in the test on HT-29; 93.8 µM (inactive) in the test on BT-549; 88.5 µM (inactive) in the test on IGROV-1; 49.3 µM (inactive) in the test on OVCAR-8; > 100 µM (inactive) in the test with NCI-H23. Also, the GI50 was 91.2 µM (inactive) with MCF7; 93.1 µM (inactive) with U-251; > 100 µM (inactive) in the test on A549; > 100 µM (inactive) in the test with NCI-H460; > 100 µM (inactive) in the test on SK-MEL-28; 90.8 µM (inactive) in the test on HCT-116.

Take `C[N+](C)(C)CC1CCCC1=O` (stereo unspecified): the GI50 in the test with MDA-MB-231 was 1.39 µM (inactive); with SF-539 it was 2.98 µM (inactive); in the test on SN12C, 2.64 µM (inactive); in the test with SW-620 it was 0.383 µM (active); in the test with SK-OV-3, 16.5 µM (inactive); with LOX IMVI it was 0.832 µM (active). Further, the GI50 in the test with MDA-N is 1.69 µM (inactive); in the test on HT-29 it was 1.23 µM (inactive); in the test with HCC 2998, 16 µM (inactive); in the test on BT-549, 1 µM (active); in the test with IGROV-1, 16 µM (inactive); in the test on OVCAR-8 it was 2.1 µM (inactive). Further, the GI50 in the test on NCI-H23 is 4.45 µM (inactive); in the test with U-251, 13.2 µM (inactive); in the test on Malme-3M, 0.789 µM (active); with A549, 19 µM (inactive); with NCI-H460 it was 19.5 µM (inactive); with SK-MEL-28, 1.89 µM (inactive). Besides, the GI50 in the test on HCT-116 is 1.25 µM (inactive).

On to `COC(=O)c1cnn2c1ccc1ccccc12`, for which the GI50 in the test with MDA-MB-231, in the test with SF-539, with SN12C, in the test with SW-620, in the test on SK-OV-3 and in the test with LOX IMVI was > 100 µM (inactive) each time. The GI50 with MDA-N was > 100 µM (inactive); in the test with HT-29, > 100 µM (inactive); with BT-549 it was 45.8 µM (inactive); in the test with IGROV-1, 78.9 µM (inactive); with OVCAR-8, > 100 µM (inactive); with NCI-H23, > 100 µM (inactive). Moreover, the GI50 in the test with U-251, in the test on Malme-3M, with A549, in the test on NCI-H460, with SK-MEL-28 and with HCT-116 was > 100 µM (inactive) each time.

Regarding `O=C(Nc1ccc(F)cc1)c1cc2ccc(O)cc2o/c1=N\c1cccc(F)c1`, the GI50 was 52.7 µM (inactive) in the test with SF-539; 38.9 µM (inactive) in the test with SN12C; 41.5 µM (inactive) with SW-620; 51.6 µM (inactive) in the test on SK-OV-3; 25.4 µM (inactive) with LOX IMVI; 38.8 µM (inactive) with MDA-N. Moreover, the GI50 was > 100 µM (inactive) in the test on HT-29; 55.6 µM (inactive) in the test with HCC 2998; 30.6 µM (inactive) in the test on BT-549; 18.9 µM (inactive) with IGROV-1; 18.4 µM (inactive) in the test on OVCAR-8; 19.9 µM (inactive) with NCI-H23. Also, the GI50 with MCF7 is 32.8 µM (inactive); in the test on U-251, 28.7 µM (inactive); in the test with Malme-3M, 20.2 µM (inactive); in the test on NCI-H460, 31.7 µM (inactive); with SK-MEL-28 it was 45.7 µM (inactive); with HCT-116 it was 35.4 µM (inactive).

With `COc1cc(/C=C/C(=O)CC(=O)/C=C/c2cc(C)c(O)c(OC)c2)cc(C)c1O`, the GI50 in the test on MDA-MB-231, with SF-539, with SN12C, in the test on SW-620, in the test with SK-OV-3 and with LOX IMVI was > 100 µM (inactive) in each case. The GI50 in the test with HT-29, in the test with HCC 2998, in the test with BT-549, in the test with IGROV-1, with OVCAR-8 and with NCI-H23 was > 100 µM (inactive) throughout. The GI50 with MCF7 was 52.8 µM (inactive); with U-251, > 100 µM (inactive); in the test with Malme-3M it was > 100 µM (inactive); in the test with A549, > 100 µM (inactive); in the test with NCI-H460 it was > 100 µM (inactive); with SK-MEL-28 it was > 100 µM (inactive). Besides, the GI50 in the test on HCT-116 was 58.3 µM (inactive).
